The values that follow are results of earlier work, collected in US20090117559A1, “Methods for Determining Probability of an Adverse or Favorable Reaction to a Niacin Receptor Agonist” (priority 2005, published 2009).

For series [1] the following is noted: post administration of niacin by injection.

Regarding `O=C(O)c1cccnc1` [niacin, nicotinic acid], the “patients who cease taking niacin treatment within days after initiating therapy” value (human, in vivo) is reported as 30-40%. Also, under “unsegmented (general) population, Shepherd et al. 2005”, the “subjects experiencing flushing in response to nicotinic acid therapy” value is reported as 70-80%. Also, in series [1], the “time after which the flushing reaction declines significantly” value was “about 30 minutes” and the “time at which the flushing reaction peaks” value is “about 3 minutes”.
